Laboratory results taken from US20170143674A1, “Use of Glutaryl Histamine for the Treatment of Respiratory Tract Diseases” (LTD "VALENTA-INTELLEKT", priority 2011, published 2017).
Like-named read-outs stand apart in the source and are kept apart here. Marks after values point to notes of the source that are not given here.

How the values were obtained:
[1] = tested on: Staphylococcus aureus (mouse-adapted MRSA strain 5); test: animal or person; assay type: in vivo, mice
Experimental: Tested medicament was glutaryl histamine in doses of 15, 30 and 45 mg/kg. Solutions of the tested medicament for oral administration were prepared ex tempore in stream water. Ampicillin (in intravenous administration) was used as a therapeutic preparation since it is the most experimentally studied antibiotic approved in clinical practice many years ago. Levofloxacin was used as a positive control (in oral administration).
Staphylococcus aureus was used as an infectious agent (mouse-adapted MRSA strain 5, collection from GU NIINA im.G.F. Gauze RAMN).
Firstly, there was determined a lethal dose (LD100) of staphylococcus when intravenously administered to this line of mice with a certain weight. Fatal cases among mice were registered every day for ten days. […] After that, there was determined the dose of ampicillin providing a survival rate of 20% of mice infected with staphylococcus MRSA taken in a lethal dose. For this purpose, mice were housed into cages by 10 animals and infected with a lethal dose of staphylococcus. One hour later, each mouse was intravenously administered ampicillin in doses of 30, 60, 90, 120, 150, and 180 mg/kg. A group of mice infected with a lethal dose of staphylococcus without the treatment was considered as a control group. Fatal cases among mice were registered every day for ten days.
The next step of the experiment was to study an effect of combined administration of glutaryl histamine with ampicilline on a model of MRSA-induced staphylococcal sepsis in mice.
In the experiment, the mice were housed in following groups of 10 animals per cage: […]

[2] = tested on: acute rhinosinusitis induced by intranasal administration of formalin; assay type: in vivo, rat; conditions: for The number of caliciform cells within 1 mm of the mucosal membrane of the nasal septum: M ± m; for Mucopurulent catarrh (number of rats) / Mucous catarrh (number of rats) / Without changes (number of rats, mucous membrane in the nasal passages, macroscopic): n = 10
Experimental: Activity of glutaryl histamine was studied in an experimental model of acute rhinosinusitis (ARS).
Administration of 20 μl of 7.5% formalin to the rat nasal passages leads to the development of a clinical picture similar to the symptoms of acute rhinosinusitis in a human.
The tested medicament and reference medicaments were administered for 7 days after administration of 7.5% formalin. Normal saline solution was used as placebo. The animals were subjected to euthanasia on day 8 after induction of experimental acute rhinosinusitis by method of air embolism. During necropsy, nasal passages of all animals were sampled. The obtained material was placed into 10% neutral-buffered formalin for further histological analysis.
The mucous and submucous membranes of both nasal passages (respiratory and olfactory regions) of the experimental animals were subjected to a morphological analysis of the specific activity of glutaryl histamine.
After the clinical phase of the experiment, the material derived from the animals was subjected to the standard treatment to prepare histological paraffin sections with a thickness of 3 to 5 μm. The sections were stained with hematoxylin and eosin for a microscopic study. Comparison and histological analysis of changes were performed versus the group of intact rats.
The main pathological processes inherent in experimental acute rhinosinusitis, such as vascular congestion in mucous membrane, hyperplasia and necrosis of the epithelium, the number of caliciform cells within 1 mm of the mucous membrane in the nasal septum, were evaluated by a semi-quantitative method to evaluate the degree of pathophysiological changes in histological, histochemical and morphological studies.
The microscopic analysis of exudative disorder developed in rats with acute rhinitis was aimed at measuring the number of caliciform cells comprising acidic mucus (Table 3).

[3] = group 2: ampicillin 120 mg/ml i.v. one time

CC1(C)S[C@@H]2[C@H](NC(=O)[C@H](N)c3ccccc3)C(=O)N2[C@H]1C(=O)O [ampicillin]
Survival rate (%) ([1]; ampicillin 30 mg/kg + LD100 St.a., day 10): 0%
Survival rate (%) ([1]; ampicillin 60 mg/kg + LD100 St.a., day 10): 0%
Survival rate (%) ([1]; ampicillin 90 mg/kg + LD100 St.a., day 10): 10%
Survival rate (%) ([1]; ampicillin 120 mg/kg + LD100 St.a., day 10): 20%
Survival rate (%) ([1]; ampicillin 150 mg/kg + LD100 St.a., day 10): 20%
Survival rate (%) ([1]; ampicillin 180 mg/kg + LD100 St.a., day 10): 20%
died/survived animals ([1]; day 1, ampicillin 30 mg/kg + LD100 St.a.): 0/10
died/survived animals ([1]; day 1, ampicillin 60 mg/kg + LD100 St.a.): 0/10
died/survived animals ([1]; day 1, ampicillin 90 mg/kg + LD100 St.a.): 0/10
died/survived animals ([1]; day 1, ampicillin 120 mg/kg + LD100 St.a.): 0/10
died/survived animals ([1]; day 1, ampicillin 150 mg/kg + LD100 St.a.): 0/10
died/survived animals ([1]; day 1, ampicillin 180 mg/kg + LD100 St.a.): 0/10
died/survived animals ([1]; day 1, group 2: ampicillin 120 mg/ml i.v. one time): 0/10
died/survived animals ([1]; day 2, ampicillin 30 mg/kg + LD100 St.a.): 1/9
died/survived animals ([1]; day 2, ampicillin 60 mg/kg + LD100 St.a.): 0/10
died/survived animals ([1]; day 2, ampicillin 90 mg/kg + LD100 St.a.): 0/10
died/survived animals ([1]; day 2, ampicillin 120 mg/kg + LD100 St.a.): 0/10
died/survived animals ([1]; day 2, ampicillin 150 mg/kg + LD100 St.a.): 0/10
died/survived animals ([1]; day 2, ampicillin 180 mg/kg + LD100 St.a.): 0/10
died/survived animals ([1]; day 2, group 2: ampicillin 120 mg/ml i.v. one time): 0/10
died/survived animals ([1]; day 3, ampicillin 30 mg/kg + LD100 St.a.): 3/7
died/survived animals ([1]; day 3, ampicillin 60 mg/kg + LD100 St.a.): 2/8
died/survived animals ([1]; day 3, ampicillin 90 mg/kg + LD100 St.a.): 1/9
died/survived animals ([1]; day 3, ampicillin 120 mg/kg + LD100 St.a.): 1/9
died/survived animals ([1]; day 3, ampicillin 150 mg/kg + LD100 St.a.): 0/10
died/survived animals ([1]; day 3, ampicillin 180 mg/kg + LD100 St.a.): 0/10
died/survived animals ([1]; day 3, group 2: ampicillin 120 mg/ml i.v. one time): 1/9
died/survived animals ([1]; day 4, ampicillin 30 mg/kg + LD100 St.a.): 6/4
died/survived animals ([1]; day 4, ampicillin 60 mg/kg + LD100 St.a.): 4/6
died/survived animals ([1]; day 4, ampicillin 90 mg/kg + LD100 St.a.): 3/7
died/survived animals ([1]; day 4, ampicillin 120 mg/kg + LD100 St.a.): 4/6
died/survived animals ([1]; day 4, ampicillin 150 mg/kg + LD100 St.a.): 3/7
died/survived animals ([1]; day 4, ampicillin 180 mg/kg + LD100 St.a.): 2/8
died/survived animals ([1]; day 4, group 2: ampicillin 120 mg/ml i.v. one time): 2/8
died/survived animals ([1]; day 5, ampicillin 30 mg/kg + LD100 St.a.): 8/2
died/survived animals ([1]; day 5, ampicillin 60 mg/kg + LD100 St.a.): 6/4
died/survived animals ([1]; day 5, ampicillin 90 mg/kg + LD100 St.a.): 5/5
died/survived animals ([1]; day 5, ampicillin 120 mg/kg + LD100 St.a.): 6/4
died/survived animals ([1]; day 5, ampicillin 150 mg/kg + LD100 St.a.): 5/5
died/survived animals ([1]; day 5, ampicillin 180 mg/kg + LD100 St.a.): 4/6
died/survived animals ([1]; day 5, group 2: ampicillin 120 mg/ml i.v. one time): 3/7
died/survived animals ([1]; day 6, ampicillin 30 mg/kg + LD100 St.a.): 9/1
died/survived animals ([1]; day 6, ampicillin 60 mg/kg + LD100 St.a.): 8/2
died/survived animals ([1]; day 6, ampicillin 90 mg/kg + LD100 St.a.): 7/3
died/survived animals ([1]; day 6, ampicillin 120 mg/kg + LD100 St.a.): 7/3
died/survived animals ([1]; day 6, ampicillin 150 mg/kg + LD100 St.a.): 7/3
died/survived animals ([1]; day 6, ampicillin 180 mg/kg + LD100 St.a.): 6/4
died/survived animals ([1]; day 6, group 2: ampicillin 120 mg/ml i.v. one time): 5/5
died/survived animals ([1]; day 7, ampicillin 30 mg/kg + LD100 St.a.): 10/0
died/survived animals ([1]; day 7, ampicillin 60 mg/kg + LD100 St.a.): 9/1
died/survived animals ([1]; day 7, ampicillin 90 mg/kg + LD100 St.a.): 8/2
died/survived animals ([1]; day 7, ampicillin 120 mg/kg + LD100 St.a.): 8/2
died/survived animals ([1]; day 7, ampicillin 150 mg/kg + LD100 St.a.): 7/3
died/survived animals ([1]; day 7, ampicillin 180 mg/kg + LD100 St.a.): 7/3
died/survived animals ([1]; day 7, group 2: ampicillin 120 mg/ml i.v. one time): 6/4
died/survived animals ([1]; day 8, ampicillin 30 mg/kg + LD100 St.a.): 10/0
died/survived animals ([1]; day 8, ampicillin 60 mg/kg + LD100 St.a.): 10/0
died/survived animals ([1]; day 8, ampicillin 90 mg/kg + LD100 St.a.): 9/1
died/survived animals ([1]; day 8, ampicillin 120 mg/kg + LD100 St.a.): 8/2
died/survived animals ([1]; day 8, ampicillin 150 mg/kg + LD100 St.a.): 8/2
died/survived animals ([1]; day 8, ampicillin 180 mg/kg + LD100 St.a.): 7/3
died/survived animals ([1]; day 8, group 2: ampicillin 120 mg/ml i.v. one time): 7/3
died/survived animals ([1]; day 9, ampicillin 30 mg/kg + LD100 St.a.): 10/0
died/survived animals ([1]; day 9, ampicillin 60 mg/kg + LD100 St.a.): 10/0
died/survived animals ([1]; day 9, ampicillin 90 mg/kg + LD100 St.a.): 9/1
died/survived animals ([1]; day 9, ampicillin 120 mg/kg + LD100 St.a.): 8/2
died/survived animals ([1]; day 9, ampicillin 150 mg/kg + LD100 St.a.): 8/2
died/survived animals ([1]; day 9, ampicillin 180 mg/kg + LD100 St.a.): 8/2
died/survived animals ([1]; day 9, group 2: ampicillin 120 mg/ml i.v. one time): 8/2
died/survived animals ([1]; day 10, ampicillin 30 mg/kg + LD100 St.a.): 10/0
died/survived animals ([1]; day 10, ampicillin 60 mg/kg + LD100 St.a.): 10/0
died/survived animals ([1]; day 10, ampicillin 90 mg/kg + LD100 St.a.): 9/1
died/survived animals ([1]; day 10, ampicillin 120 mg/kg + LD100 St.a.): 8/2
died/survived animals ([1]; day 10, ampicillin 150 mg/kg + LD100 St.a.): 8/2
died/survived animals ([1]; day 10, ampicillin 180 mg/kg + LD100 St.a.): 8/2
died/survived animals ([1]; day 10, group 2: ampicillin 120 mg/ml i.v. one time): 8/2
Mortality rate (%) [1, 3]: 80%
Survival rate (%) [1, 3]: 20%

O=C(O)CCCC(=O)NCCc1c[nH]cn1 [glutaryl histamine]
The number of caliciform cells within 1 mm of the mucosal membrane of the nasal septum ([2]; Glutaryl histamine 9 mg/kg): 29.0 ± 2.7* **
Mucopurulent catarrh (number of rats) ([2]; Glutaryl histamine 9 mg/kg): 3
Mucous catarrh (number of rats) ([2]; Glutaryl histamine 9 mg/kg): 4
Without changes (number of rats, mucous membrane in the nasal passages, macroscopic) ([2]; Glutaryl histamine 9 mg/kg): 3
The number of caliciform cells within 1 mm of the mucosal membrane of the nasal septum ([2]; Glutaryl histamine 27 mg/kg): 19.6±2.4
The number of caliciform cells within 1 mm of the mucosal membrane of the nasal septum ([2]; Glutaryl histamine 27 mg/kg, listed as Glutaryl histamine): 19.6 ± 2.4
Mucopurulent catarrh (number of rats) ([2]; Glutaryl histamine 27 mg/kg): 1
Mucous catarrh (number of rats) ([2]; Glutaryl histamine 27 mg/kg): 1
Without changes (number of rats, mucous membrane in the nasal passages, macroscopic) ([2]; Glutaryl histamine 27 mg/kg): 8
The number of caliciform cells within 1 mm of the mucosal membrane of the nasal septum ([2]; Glutaryl histamine 45 mg/kg): 23.9 ± 1.7* **
Mucopurulent catarrh (number of rats) ([2]; Glutaryl histamine 45 mg/kg): 0
Mucous catarrh (number of rats) ([2]; Glutaryl histamine 45 mg/kg): 0
Without changes (number of rats, mucous membrane in the nasal passages, macroscopic) ([2]; Glutaryl histamine 45 mg/kg): 10
